In patent publication US5994303A, “Use of insulin and IGF-I” (Chiron Corporation, priority 1994, dated 1999):
“Also recorded” adds a separate entry of the source.

Experiments:
[1] = tested on: Male Sprague-Dawley rats; assay: Example 2: dexamethasone-treated rats infused with insulin, rhGH, rhIGF-I and combinations; feed intake, nitrogen digestion and retention, serum urea; format: in vivo, rat; details: for Feed intake / feed consumption (in words) / Nitrogen balance / nitrogen wasting induced by dexamethasone (in words) / Relative nitrogen retention (retained N/digested N x 100): 8 days infusion; for Nitrogen balance / nitrogen wasting induced by dexamethasone (in words): Dex 26 ug/day with or without peptides; for Relative nitrogen retention (retained N/digested N x 100): Dex 26 ug/day with peptides: insulin 39, rhGH 360, rhIGF-I 500 ug/day, mean, pooled SE
Description: On day zero the rats were anaesthetized intraperitoneally with 0.4 ml per 100 g body weight of a mixture of Rompun (20 mg·ml^-1), Ketalar (50 mg·ml^-1) and Saline (0.9%) in 1:2:3 volume proportions. The hair on the back of the rats was shaved off and the exposed skin carefully washed with 0.05% chlorhexidine (Pharmacia, Stockholm, Sweden) and 0.4% jodopax (Molnlycke, Goteborg, Sweden), both being diluted in 70% alcohol.
Two mutually parallel incisions, each of 15 mm in length, were then made along the dorsal midline. The incisions penetrated the epidermis, dermis and subcutaneous muscle but left the deep fascia intact. Two subcutaneous pockets were made on both sides of the incisions by separating the subcutaneous muscle from the deep fascia. One (Exp. I) or two (Exp. 2) mini-pumps were implanted in each pocket. The wounds were closed with sutures 4-0 Johnson & Johnson).
Osmotic mini-pumps (Alzet 2001, Alza Corporation, Palo Alto, USA) releasing 1 μl·h^-1 for 8 days were used for continuous delivery of hormones and Dex to the animals. The pumps were filled to a volume of 0.22 ml with solutions of rhGH (14.4 mg·ml^-1, Genotropin®, Pharmacia), rhIGF-I (20 mg·ml^-1, Igef®, Pharmacia, Kabi Peptide Hormones, Stockholm, Sweden), insulin (1.57 mg/ml, Actrapid®, Novo, Copenhagen, Denmark), Dex (1.04 mg·ml^-1, Decadron, Merck Sharp & Dohme International, Rathway, USA) or Saline (0.9%). Two (Example 1) or four (Example 2) pumps combined as described above were implanted in each rat. Implantation of the pumps was performed under strictly aseptic conditions.
Total feed intake was registered throughout the full 8 day experimental period. Urine and faeces were collected daily, pooled and kept at -20° C. until analysed. Excreta was collected by housing the animals in individual metabolism cages that were specially designed for the separation of urine and faeces. In order to inhibit urease-activity in the urine, 1 ml of 5% sulphuric acid was pipetted every morning in the collection vessels. The 24 hour collections of urine were pooled individually for each treatment period and immediately frozen after the collection. Similarly, the samples of faeces were also pooled individually for each treatment period and kept frozen (-20° C.) until analysis.
Blood samples were taken on day zero and on the last day of the experiment. During anaesthesia, blood was withdrawn quickly from the orbital plexus by using a glass capillary. On each sampling occasion 0.75 ml blood was taken 5 from each animal. One third (0.25 ml) of the blood sample was collected in a microtainer tube containing EDTA (Beckton and Dickinson) for analysis of glucose. Serum was prepared from the remaining blood sample (0.5 ml) in accordance with standard methods and analysed for urea.
Urea in serum was determined spectrophotometrically by using the Urea UV Uni-Kit II (Roche) with an autoanalyzer (Cobas Mira, Roche Co, Basel, Switzerland). Urea values were expressed in mmol/l. The total nitrogen content in urine was determined with the aid of the Antek Pyro-Chemilumicence Nitrogen System. The apparatus used comprised the Antek 7000N nitrogen analyser with Liquid Auto Sampler 736-2 and a pyrolysis tube with a ceramic liner (Antek Instruments Inc., Houston, Tex., U.S.A.). The frozen urinary samples were thawed and diluted 1:100 with 0.1 M HCl and then analysed. The urinary nitrogen values were then calculated as mg nitrogen excreted.
Total nitrogen in faeces was determined by an established Kjeldahl method (Kjeltec System, Tecator AB, Halsingborg, Sweden). The frozen faecal samples were thawed and dried in an oven at 60° C. overnight. The weight of the dried sample was noted and the sample then ground. 0.20 g of the milled faecal sample was mixed in a Kjeldahl digestion tube with 10.0 ml of concentrated sulphuric acid. 2.0 ml of a 30% solution of H2 O2 (30% Perhydrol, Merck, Darmstadt, Germany) was added and mixed carefully.

[2] = tested on: Male Sprague-Dawley rats; assay: Example 1: dexamethasone-treated rats infused with saline, rhGH or rhIGF-I; body weight gain and nitrogen retention; format: in vivo, rat; details: for Retention of nitrogen (nitrogen balance): 8 days infusion with Dex, rhIGF-I 500 per day vs saline or rhGH
Description: On day zero the rats were anaesthetized intraperitoneally with 0.4 ml per 100 g body weight of a mixture of Rompun (20 mg·ml^-1), Ketalar (50 mg·ml^-1) and Saline (0.9%) in 1:2:3 volume proportions. The hair on the back of the rats was shaved off and the exposed skin carefully washed with 0.05% chlorhexidine (Pharmacia, Stockholm, Sweden) and 0.4% jodopax (Molnlycke, Goteborg, Sweden), both being diluted in 70% alcohol. Two mutually parallel incisions, each of 15 mm in length, were then made along the dorsal midline. The incisions penetrated the epidermis, dermis and subcutaneous muscle but left the deep fascia intact. Two subcutaneous pockets were made on both sides of the incisions by separating the subcutaneous muscle from the deep fascia. One (Exp. I) or two (Exp. 2) mini-pumps were implanted in each pocket. The wounds were closed with sutures 4-0 Johnson & Johnson). Osmotic mini-pumps (Alzet 2001, Alza Corporation, Palo Alto, USA) releasing 1 μl·h^-1 for 8 days were used for continuous delivery of hormones and Dex to the animals. The pumps were filled to a volume of 0.22 ml with solutions of rhGH (14.4 mg·ml^-1, Genotropin®, Pharmacia), rhIGF-I (20 mg·ml^-1, Igef®, Pharmacia, Kabi Peptide Hormones, Stockholm, Sweden), insulin (1.57 mg/ml, Actrapid®, Novo, Copenhagen, Denmark), Dex (1.04 mg·ml^-1, Decadron, Merck Sharp & Dohme International, […], USA) or Saline (0.9%). Two (Example 1) or four (Example 2) pumps combined as described above were implanted in each rat. Implantation of the pumps was performed under strictly aseptic conditions. Total feed intake was registered throughout the full 8 day experimental period. Urine and faeces were collected daily, pooled and kept at -20° C. until analysed. Excreta was collected by housing the animals in individual metabolism cages that were specially designed for the separation of urine and faeces. In order to inhibit urease-activity in the urine, 1 ml of 5% sulphuric acid was pipetted every morning in the collection vessels. The 24 hour collections of urine were pooled individually for each treatment period and immediately frozen after the collection. Similarly, the samples of faeces were also pooled individually for each treatment period and kept frozen (-20° C.) until analysis. Urea in serum was determined spectrophotometrically by using the Urea UV Uni-Kit II (Roche) with an autoanalyzer (Cobas Mira, Roche Co, Basel, Switzerland). Urea values were expressed in mmol/l. The total nitrogen content in urine was determined with the aid of the Antek Pyro-Chemilumicence Nitrogen System. The apparatus used comprised the […] nitrogen analyser with Liquid Auto Sampler 736-2 and a pyrolysis tube with a ceramic […] Instruments Inc., Houston, Tex., U.S.A.). The frozen urinary samples were thawed and diluted 1:100 with 0.1 M HCl and then analysed. The urinary nitrogen values were then calculated as mg nitrogen excreted. Total nitrogen in faeces was determined by an established Kjeldahl method (Kjeltec System, Tecator AB, Halsingborg, Sweden). The frozen faecal samples were thawed and dried in an oven at 60° C. overnight. The weight of the dried sample was noted and the sample then ground. 0.20 g of the milled faecal sample was mixed in a Kjeldahl digestion tube with 10.0 ml of concentrated sulphuric acid. 2.0 ml of a 30% solution of H2 O2 (30% Perhydrol, Merck, Darmstadt, Germany) was added and mixed carefully. One catalyst tablet (Kjeltabs C A, Thompson & Capper, Runcom, Cheshire, UK) was added to each sample. The mixture was digested at 380° C. for at least one hour or until complete bleaching of the sample was achieved. […] The faecal nitrogen values were calculated as mg nitrogen excreted. Data were subjected to a one-way analysis of variance in which the effect of treatment was considered the prime source of variation. Calculations were executed by the GLM procedure of the SAS program (SAS 1985). […]

[3] = 8 days s.c. mini-pump infusion, at every Dex dose (26, 13 or 6.5 per day), rhGH 360, rhIGF-I 500 per day, vs saline

Compound | Feed intake / feed consumption (in words) [1] | Nitrogen balance / nitrogen wasting induced by dexamethasone (in words) [1] | Relative nitrogen retention (retained N/digested N x 100) [1] [%] | Reduction of feed intake ([1]; Dex 26 per day, 8 days) | Body weight gain [2, 3] | Nitrogen balance / nitrogen wasting induced by dexamethasone (in words) ([1]; listed as GH) | Retention of nitrogen (nitrogen balance) [2] | Body weight gain ([2]; 8 days infusion, at the medium and high Dex infusion dose)
C[C@@H]1C[C@H]2[C@@H]3CCC4=CC(=O)C=C[C@]4(C)[C@@]3(F)[C@@H](O)C[C@]2(C)[C@@]1(O)C(=O)CO [Dex, dexamethasone, reference compound] | generally decreased feed intake | decrease the nitrogen balance dramatically | 7.2 | approximately 20% | general decrease with increased Dex dose | – | – | –
insulin: insulin (Actrapid, Novo) | – | without effect | 11.9 | – | – | – | – | –
rhGH: recombinant human growth hormone (Genotropin, Pharmacia) | – | not found to counteract the nitrogen wasting induced by dexamethasone | 3.8 | – | the opposite effect | without effect | followed the same pattern | negative values for body weight gain
rhIGF-I: recombinant human insulin-like growth factor I (Igef, Pharmacia) | slightly stimulated feed consumption | decreased significantly the wasting of nitrogen induced by dexamethasone | 23.0 | – | significantly (p<0.05) higher weight gain in comparison with saline; also recorded: significantly (p<0.05) increased | – | significantly (p<0.05) higher; also recorded: followed the same pattern | –
